The subject of series [1] is disseminated L1210 murine leukemia. Kind of series: Antileukemic activity against disseminated L1210 murine leukemia (cells injected iv).
For a further series, the system named is MX1 mammary carcinoma. Nature of the series: Antitumor activity on s.c. injected MX1 mammary carcinoma. Type of series: in vivo, mice.
Series [2] relates to H207 human ovarian carcinoma. Kind of series: Antitumor activity on s.c. implanted H207 human ovarian carcinoma.
Series [3] deals with A549 human lung carcinoma. Kind of series: Antitumor activity on s.c. implanted A549 human lung carcinoma.
[4] abbreviates: Ia alone 1 mg/kg/day iv day +1,2.
Setting [5] is: Ia alone 0.5 mg/kg/day iv 8,12,16.
Setting [6] is: Ia alone 1 mg/kg/day iv 8,12,16.
Where [7] appears, read: Ia alone 1.5 mg/kg/day iv q4dx3.
Where [8] appears, read: Table 2, Ia alone 1.5 mg/kg/day iv q4dx3.
The mark [9] stands for this setting: Table 3, Ia alone 2 mg/kg/day iv +7,11,15.
Where [10] appears, read: Table 2, CisPlatin alone 3 mg/kg/day iv q4dx2.
Where [11] appears, read: Paclitaxel alone 22 mg/kg/day iv q4dx3.
Setting [12] is: Paclitaxel alone 33 mg/kg/day iv q4dx3.
The mark [13] stands for this setting: Table 3, Paclitaxel alone 22 mg/kg/day iv +9,13,17.
Where [14] appears, read: Table 3, Paclitaxel alone 33 mg/kg/day iv +9,13,17.
[15] abbreviates: Taxotere alone 5 mg/kg/day iv 10,14,18.
[16] abbreviates: Taxotere alone 10 mg/kg/day iv 10,14,18.

`CC(=O)[C@]1(O)Cc2c(O)c3c(c(O)c2[C@@H](OC2CC(N4CC4)C(OS(C)(=O)=O)C(C)O2)C1)C(=O)c1ccccc1C3=O` (some centres unmarked) [Ia, 4-demethoxy-3′-deamino-3′-aziridinyl-4′-methansulfonyl daunorubicin]: the “ILS % (increase in life span)” value in series [1] (setting [4]) is 83%. Besides, the “Tox (number of toxic deaths/number of mice)” value in series [1] (setting [4]) is on record as 0/10; in the series with MX1 mammary carcinoma (setting [5]), 0/8; with MX1 mammary carcinoma (setting [6]), 0/7; in series [2] (setting [7]) it was 0/7; in series [3] (setting [8]), 0/9; in series [3] (setting [9]) it was 0/8. Further, the “Body weight Reduction % (day)” value is listed as 0% with MX1 mammary carcinoma (setting [5]); 5% in the series on MX1 mammary carcinoma (Ia alone 1 mg/kg/day iv 8,12,16, day 17); 7% in series [2] (Ia alone 1.5 mg/kg/day iv q4dx3, day 15); 9(14) % in series [3] (Table 2, Ia alone 1.5 mg/kg/day iv q4dx3, day 14); 11% in series [3] (Table 3, Ia alone 2 mg/kg/day iv +7,11,15, day 13). The “N° of Tumor-Free Survivors” value in the series with MX1 mammary carcinoma (setting [5]) was 0/8; in the series with MX1 mammary carcinoma (setting [6]), 1/7; in series [2] (setting [7]), 0/7; in series [3] (setting [8]), 0/9; in series [3] (setting [9]) it was 0/8. Further, the “T.I. % (tumor inhibition)” value with MX1 mammary carcinoma (setting [5]) came out at 46%; in the series on MX1 mammary carcinoma (setting [6]), 94%; in series [2] (setting [7]), 100%; in series [3] (setting [8]) it was 48%; in series [3] (setting [9]), 69%. Moreover, the “TGD (lg) days (tumor growth delay treated - control)” value (“TGD (lg) days” for short) in the series on MX1 mammary carcinoma (setting [5]) came to 1 days; in the series on MX1 mammary carcinoma (setting [6]), 2 days. Besides, the figures for the “T-C N° of days (tumor growth delay, 1 g)” value in series [2] (setting [7]), in series [3] (setting [8]) and in series [3] (setting [9]) were 47 days, 5 days and 9 days, respectively.

Regarding `N.N.[Cl][Pt][Cl]` [CisPlatin], in series [3] (setting [10]), the “N° of Tumor-Free Survivors” value is recorded as 0/9; the “T-C N° of days (tumor growth delay, 1 g)” value came out at 0 days; the “T.I. % (tumor inhibition)” value came out at 16%. The “Body weight Reduction % (day)” value in series [3] (Table 2, CisPlatin alone 3 mg/kg/day iv q4dx2, day 18) was 2(18) %.

For the compound `CC(=O)O[C@H]1C(=O)[C@@]2(C)[C@H]([C@H](OC(=O)c3ccccc3)[C@]3(O)C[C@H](OC(=O)[C@H](O)[C@@H](NC(=O)c4ccccc4)c4ccccc4)C(C)=C1C3(C)C)[C@]1(OC(C)=O)CO[C@@H]1C[C@@H]2O` [Paclitaxel], in series [2] (setting [11]), the “Body weight Reduction % (day)” value was 0%; the “N° of Tumor-Free Survivors” value is on record as 0/7; the “T-C N° of days (tumor growth delay, 1 g)” value worked out at 9 days; the “T.I. % (tumor inhibition)” value is 80%. Besides, in series [2] (setting [11]), the “Tox (number of toxic deaths/number of mice)” value was 0/7. Moreover, in series [2] (setting [12]), the “N° of Tumor-Free Survivors” value was 0/7; the “T-C N° of days (tumor growth delay, 1 g)” value is listed as 12 days; the “T.I. % (tumor inhibition)” value is on record as 86%; the “Tox (number of toxic deaths/number of mice)” value is reported as 0/7. Also, the “Body weight Reduction % (day)” value in series [2] (Paclitaxel alone 33 mg/kg/day iv q4dx3, day 13) is reported as 3%. In series [3] (setting [13]), the “Body weight Reduction % (day)” value is reported as 0%; the “N° of Tumor-Free Survivors” value is given as 0/8; the “T-C N° of days (tumor growth delay, 1 g)” value worked out at 27 days; the “T.I. % (tumor inhibition)” value worked out at 90%. In addition, the “Tox (number of toxic deaths/number of mice)” value in series [3] (setting [13]) was 0/8. Besides, in series [3] (setting [14]), the “Body weight Reduction % (day)” value is given as 0%; the “N° of Tumor-Free Survivors” value is recorded as 0/8; the “T-C N° of days (tumor growth delay, 1 g)” value is recorded as 29 days; the “T.I. % (tumor inhibition)” value turned out to be 93%. Besides, the “Tox (number of toxic deaths/number of mice)” value in series [3] (setting [14]) was 0/8.

For the compound `O=C1[O][Pt]2([NH][C@@H]3CCCC[C@H]3[NH]2)[O]C1=O` [Oxaliplatinum, Oxaliplatin], the “ILS % (increase in life span)” value in series [1] (Oxaliplatinum alone 8 mg/kg/day ip day +3) came to 83%.

Take `CC(=O)O[C@@]12CO[C@@H]1C[C@H](O)[C@@]1(C)C(=O)[C@H](O)C3=C(C)[C@@H](OC(=O)[C@H](O)[C@@H](NC(=O)OC(C)(C)C)c4ccccc4)C[C@@](O)([C@@H](OC(=O)c4ccccc4)[C@H]21)C3(C)C` [Taxotere, Docetaxel]: in the series with MX1 mammary carcinoma (setting [15]), the “Body weight Reduction % (day)” value is 0%, the “N° of Tumor-Free Survivors” value is recorded as 0/8, the “T.I. % (tumor inhibition)” value was 60% and the “TGD (lg) days” value turned out to be 1 days. Also, the “Tox (number of toxic deaths/number of mice)” value with MX1 mammary carcinoma (setting [15]) is 0/8. In the series on MX1 mammary carcinoma (setting [16]), the “N° of Tumor-Free Survivors” value is 2/8, the “T.I. % (tumor inhibition)” value turned out to be 99%, the “TGD (lg) days” value came to 42 days and the “Tox (number of toxic deaths/number of mice)” value is 0/8. Further, the “Body weight Reduction % (day)” value in the series with MX1 mammary carcinoma (Taxotere alone 10 mg/kg/day iv 10,14,18, day 25) amounted to 8%.

For the origin of these results see patent publication US6593303B1, “Anti-tumor synergetic composition” (Pharmacia & Upjohn, S.p.A., priority 1999, dated 2003).
